Measurements: the supplement of paper PMC10307832

Each cell line was assayed with CN(C)C(=N)NC(=N)N [Metformin] + CS(=O)(=O)CCNCc1ccc(-c2ccc3ncnc(Nc4ccc(OCc5cccc(F)c5)c(Cl)c4)c3c2)o1 [Lapatinib] (partner 2 µM) (assay: relative viability (nuclei count vs DMSO), 5 days (fraction); higher = more cells survive). Settings: first compound 10 µM.
Summary of the method: (§1)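 Cells from lung cancer lines were seeded into 1536-well plates and, one day later, dosed by pin tool. Treatments were either a single drug or a fixed dose of an anchor drug with five library-drug doses (not always all listed) in √10 steps. After 5 days, nuclei were stained in a one-step fixation (final 0.05% Triton X-100, 1% formaldehyde, 1 ug/ml Hoechst) and counted on 4× images, and relative viability is the treated-to-vehicle nuclei ratio, as the median of duplicate plates.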
Work on A549 yielded a relative viability of 0.946. Cell Line A-427 has a relative viability of 0.943. With ABC-1 the relative viability was 1.53. BEN showed a relative viability of 0.976. With CAL-12T the relative viability was 0.645. COR-L23 gave a relative viability of 1.21. For COR-L 105, the relative viability was 0.415. Work on Calu-6 yielded a relative viability of 0.864. For EBC-1, the relative viability was 0.182. In the case of EKVX, the relative viability was 0.185. Work on EMC-BAC-2 yielded a relative viability of 0.886. In the case of EPLC-272H, the relative viability was 1.22. With H3255 the relative viability was 0.254. With HARA the relative viability was 1. HCC-15 gave a relative viability of 0.54. HCC-44 gave a relative viability of 1.05. Cell Line HCC-78 has a relative viability of 0.494. HCC-366 showed a relative viability of 1.05. HOP-62 gave a relative viability of 0.725. For IA-LM, the relative viability was 1.13. For LCLC-97TM1, the relative viability was 0.888. LK-2 was tested, and the relative viability was 1.22. LOU-NH91 showed a relative viability of 0.784. In the case of NCI-H1299, the relative viability was 0.973. With NCI-H1395 the relative viability was 1.11. In the case of NCI-H1650, the relative viability was 0.699. Cell Line NCI-H1703 has a relative viability of 1.71. NCI-H1793 showed a relative viability of 0.733. Cell Line NCI-H2170 has a relative viability of 0.273.

Same assay, conditions: first compound 31.62 µM
In the case of 201T, the relative viability was 1.08. In the case of A549, the relative viability was 0.934. Work on A-427 yielded a relative viability of 1.06. In the case of ABC-1, the relative viability was 1.12. BEN showed a relative viability of 1.12. CAL-12T was tested, and the relative viability was 0.801. For COR-L23, the relative viability was 0.969. COR-L 105 showed a relative viability of 0.36. Calu-6 showed a relative viability of 1.03. For EBC-1, the relative viability was 0.181. In the case of EKVX, the relative viability was 0.16. Cell Line EMC-BAC-2 has a relative viability of 0.951. For EPLC-272H, the relative viability was 1.09. Work on H3255 yielded a relative viability of 0.227. HARA gave a relative viability of 1. HCC-15 showed a relative viability of 0.908. For HCC-44, the relative viability was 0.976. Work on HCC-78 yielded a relative viability of 1.05. HCC-366 gave a relative viability of 1.05. HCC-827 gave a relative viability of 0.216. For HOP-62, the relative viability was 1.05. With IA-LM the relative viability was 0.944. LC-2-ad gave a relative viability of 1.03. LCLC-97TM1 was tested, and the relative viability was 1.36. LK-2 was tested, and the relative viability was 1.19. For LOU-NH91, the relative viability was 0.775. In the case of NCI-H1299, the relative viability was 1.03. With NCI-H1395 the relative viability was 1.25. NCI-H1650 gave a relative viability of 0.844. In the case of NCI-H1703, the relative viability was 1.46. NCI-H1793 showed a relative viability of 0.773. NCI-H2170 gave a relative viability of 0.247.

Same assay, conditions: first compound 100 µM
201T showed a relative viability of 1.07. Work on A549 yielded a relative viability of 0.909. A-427 was tested, and the relative viability was 1.04. Work on ABC-1 yielded a relative viability of 1.4. BEN gave a relative viability of 1.15. Work on CAL-12T yielded a relative viability of 0.794. COR-L23 was tested, and the relative viability was 0.734. Cell Line COR-L 105 has a relative viability of 0.462. Cell Line Calu-6 has a relative viability of 0.979. Work on EBC-1 yielded a relative viability of 0.23. In the case of EKVX, the relative viability was 0.176. EMC-BAC-2 was tested, and the relative viability was 0.891. In the case of EPLC-272H, the relative viability was 1.09. H3255 gave a relative viability of 0.291. With HARA the relative viability was 1.14. HCC-15 was tested, and the relative viability was 0.891. Work on HCC-44 yielded a relative viability of 1.03. In the case of HCC-78, the relative viability was 0.863. In the case of HCC-366, the relative viability was 1. HCC-827 showed a relative viability of 0.185. Cell Line HOP-62 has a relative viability of 0.891. LC-2-ad showed a relative viability of 0.853. In the case of LCLC-97TM1, the relative viability was 0.888. Work on LK-2 yielded a relative viability of 1.23. For LOU-NH91, the relative viability was 0.725. NCI-H1299 gave a relative viability of 1.04. Work on NCI-H1395 yielded a relative viability of 1.36. Work on NCI-H1650 yielded a relative viability of 0.949. NCI-H1703 gave a relative viability of 1.15. NCI-H1793 showed a relative viability of 0.902. In the case of NCI-H2170, the relative viability was 0.302.

Same assay, conditions: first compound 316.23 µM
For 201T, the relative viability was 0.989. Work on A549 yielded a relative viability of 0.722. Cell Line A-427 has a relative viability of 0.994. ABC-1 was tested, and the relative viability was 1.59. With BEN the relative viability was 0.925. For CAL-12T, the relative viability was 0.618. COR-L23 was tested, and the relative viability was 0.773. COR-L 105 was tested, and the relative viability was 0.426. With Calu-6 the relative viability was 0.913. EBC-1 was tested, and the relative viability was 0.281. Cell Line EKVX has a relative viability of 0.222. EMC-BAC-2 was tested, and the relative viability was 0.843. For EPLC-272H, the relative viability was 1.15. Cell Line H3255 has a relative viability of 0.29. For HARA, the relative viability was 1. For HCC-15, the relative viability was 0.785. Cell Line HCC-44 has a relative viability of 0.939. HCC-78 showed a relative viability of 0.933. For HCC-366, the relative viability was 1.07. In the case of HCC-827, the relative viability was 0.232. HOP-62 was tested, and the relative viability was 0.777. With IA-LM the relative viability was 0.886. In the case of LC-2-ad, the relative viability was 0.799. LCLC-97TM1 showed a relative viability of 1.08. LK-2 was tested, and the relative viability was 0.878. LOU-NH91 showed a relative viability of 0.755. NCI-H1299 showed a relative viability of 1.01. NCI-H1395 gave a relative viability of 0.963. For NCI-H1650, the relative viability was 0.707. For NCI-H1703, the relative viability was 1.05. With NCI-H1793 the relative viability was 0.73. For NCI-H2170, the relative viability was 0.288.

Same assay, conditions: first compound 1000 µM
Cell Line 201T has a relative viability of 1. Work on A549 yielded a relative viability of 0.923. In the case of A-427, the relative viability was 0.951. Cell Line ABC-1 has a relative viability of 0.851. BEN showed a relative viability of 0.583. CAL-12T showed a relative viability of 0.736. In the case of COR-L23, the relative viability was 1.07. Cell Line COR-L 105 has a relative viability of 0.405. Work on Calu-6 yielded a relative viability of 1.03. EBC-1 showed a relative viability of 0.248. Cell Line EKVX has a relative viability of 0.196. In the case of EMC-BAC-2, the relative viability was 0.925. With EPLC-272H the relative viability was 1.05. H3255 was tested, and the relative viability was 0.211. For HARA, the relative viability was 0.957. With HCC-15 the relative viability was 0.913. Work on HCC-44 yielded a relative viability of 1.03. HCC-78 gave a relative viability of 0.969. HCC-366 gave a relative viability of 1.01. HCC-827 showed a relative viability of 0.18. Work on HOP-62 yielded a relative viability of 1.05. In the case of IA-LM, the relative viability was 1.21. For LC-2-ad, the relative viability was 1. Cell Line LCLC-97TM1 has a relative viability of 1.53. LK-2 was tested, and the relative viability was 0.697. Work on LOU-NH91 yielded a relative viability of 0.71. Cell Line NCI-H1299 has a relative viability of 0.999. NCI-H1395 gave a relative viability of 0.576. Work on NCI-H1650 yielded a relative viability of 0.648. NCI-H1703 gave a relative viability of 1.05. Cell Line NCI-H1793 has a relative viability of 0.759. In the case of NCI-H2170, the relative viability was 0.288.

What follows are cell lines tested with CN(C)C(=N)NC(=N)N [Metformin] + C[C@@H](Oc1cc(-c2cnn(C3CCNCC3)c2)cnc1N)c1c(Cl)ccc(F)c1Cl [Crizotinib] (partner 1 µM) in the same assay as above. Settings: first compound 10 µM.
Summary of the method: as §1
With A549 the relative viability was 0.782. A-427 was tested, and the relative viability was 0.802. BEN was tested, and the relative viability was 1.16.
